Active and inactive are the calls of the source. The calls are words filed in the database; no cut-off is given here.

The test system of this assay is Rattus norvegicus. As to the kind of experiment: Anti-implanatation activity in female Rattus norvegicus Sprague-Dawley (rat) assessed as implantation in uterine horns at 10 mg/kg, po administered on day 1 to 5 post-coitum measured on day 10 of pregnancy by laparotomy. The format is functional.
As for `COc1ccc2c(c1)OC(C)(C)[C@H](c1ccccc1)[C@H]2c1ccc(OCCN2CCCC2)cc1` (relative stereo) [REL-ORMELOXIFENE], the Activity amounted to 100%.

`CCCCCCCCNC(=O)COc1ccc(/C=C(/C(=O)c2ccc(OC)cc2)c2ccccc2)cc1`: the Activity is 33%.

For the compound `CCCCCCCCNC(=O)COc1ccc(/C=C(/C(=O)c2ccc(OC)cc2)c2ccc(OC)cc2)cc1`, the Activity worked out at 100%.

Regarding `CCCCCCN(CC)C(=O)COc1ccc(/C=C(/C(=O)c2ccc(OC)cc2)c2ccccc2)cc1`, the Activity came to 33%.

As for `CCCCN(C)C(=O)COc1ccc(/C=C(/C(=O)c2ccc(OC)cc2)c2ccccc2)cc1`, the Activity is 67%.

Regarding `CCCCN(C)C(=O)COc1ccc(/C=C(/C(=O)c2ccc(OC)cc2)c2ccc(OC)cc2)cc1`, the result was inactive.

As for `CCCCCCCCCNC(=O)COc1ccc(/C=C(/C(=O)c2ccc(OC)cc2)c2ccccc2)cc1`, the outcome was inactive.

For the compound `CCCCCCCCCCCCNC(=O)COc1ccc(/C=C(/C(=O)c2ccc(OC)cc2)c2ccc(OC)cc2)cc1`, the outcome was inactive.

Regarding `CCCCCCCCCCCCNC(=O)COc1ccc(/C=C(/C(=O)c2ccc(OC)cc2)c2ccccc2)cc1`, the Activity turned out to be 67%.

`CCCNC(=O)COc1ccc(/C=C(/C(=O)c2ccc(OC)cc2)c2ccccc2)cc1`: the result was inactive.

In the case of `CCCCNC(=O)COc1ccc(/C=C(/C(=O)c2ccc(OC)cc2)c2ccc(OC)cc2)cc1`, the Activity is reported as 67%.

For the compound `CCCCNC(=O)COc1ccc(/C=C(/C(=O)c2ccc(OC)cc2)c2ccccc2)cc1`, the outcome was inactive.

Source of the values: ChEMBL document CHEMBL3045346, “In vivo evaluation of substituted 2,3-diaryl acrylophenone amide derivatives as anti-implantation agents” (2009).
